Experimental data reported in US7901893B2, “NPC1L1 (NPC3) and methods of identifying ligands thereof” (Merck Sharp & Dohme Corp., priority 2004, dated 2011).

What was measured:
[1] = tested on: human, mouse or rat NPC1L1-CHO overexpressing membranes; test: SPA assay; assay type: binding; conditions: 0.1 nM ligand
Method: For each well of a 96 well plate, a reaction mixture of 10 μg human, mouse or rat NPC1L1-CHO overexpressing membranes (Biosignal) and 200 μg/well YSi-WGA-SPA beads (Amersham) in 100 μl is prepared in NPC1L1 assay buffer (25 mM HEPES, pH 7.8, 2 mM CaCl2, 1 mM MgCl2, 125 mM NaCl, 0.1% BSA). A 0.4 nM stock of ligand-[^125I]-ezetimibe- is prepared in the NPC1L1 assay buffer. The above solutions are added to a 96-well assay plate as follows: 50 μl NPC1L1 assay buffer, 100 μl of reaction mixture, 50 μl of ligand stock (final ligand concentration is 0.1 nM). The assay plates are shaken for 5 minutes on a plate shaker, then incubated for 8 hours before cpm/well are determined in Microbeta Trilux counter (PerkinElmer).

mouse SR-B1 = target: T1, mouse SR-B1 (Mus musculus, UniProt Q61009); test: Effect of ezetimibe on cholesterol uptake, SR-B1 transfected CHO cells; assay type: cell-based; conditions: EZ (10 μM), SR-BI
T1 construct: expressed in transfected cells
T1 sequence (Q61009 1-509): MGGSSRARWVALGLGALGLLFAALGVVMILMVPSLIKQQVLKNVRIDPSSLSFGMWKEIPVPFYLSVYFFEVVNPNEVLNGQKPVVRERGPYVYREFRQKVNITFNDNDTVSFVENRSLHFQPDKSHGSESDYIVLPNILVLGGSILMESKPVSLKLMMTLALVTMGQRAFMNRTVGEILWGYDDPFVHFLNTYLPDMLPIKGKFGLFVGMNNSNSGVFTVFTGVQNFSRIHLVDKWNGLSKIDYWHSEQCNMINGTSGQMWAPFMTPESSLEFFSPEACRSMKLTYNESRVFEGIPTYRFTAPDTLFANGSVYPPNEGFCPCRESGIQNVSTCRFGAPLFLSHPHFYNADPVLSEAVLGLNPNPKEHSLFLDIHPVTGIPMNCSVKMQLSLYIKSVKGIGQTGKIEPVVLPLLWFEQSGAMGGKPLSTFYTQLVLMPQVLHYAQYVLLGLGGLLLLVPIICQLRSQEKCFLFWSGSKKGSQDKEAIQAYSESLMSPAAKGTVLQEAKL
Method: The effect of ezetimibe on the ability of CHO cells stably transfected with mouse or rat NPC1L1 or mouse SR-B1 to take up ^3H-labeled cholesterol was evaluated in pulse-chase experiments. One cDNA clone of mouse NPC1L1 (C7) and three clones of rat NPC1L1 (C7, C17 and C21) were evaluated. The ability of CHO cells stably transfected with mouse SR-B1, mouse NPC1L1 and rat NPC1L1 to take up labeled cholesterol, in the absence of ezetimibe, was also evaluated in the pulse-chase experiments. Data generated in these experiments are set forth, below, in Tables 4 and 5. Additionally, the quantity of total cholesterol taken up by transfected and untransfected CHO cells in the presence of four different unlabeled cholesterol concentrations was also evaluated.
Starve. The maintenance media (F12 HAMS, 1% Pen/Strep, 10% FCS) was removed and the cells were rinsed with serum-free HAMS media. The serum-free media was then replaced with 1 mL “starve” media (F12 HAMS, Pen/Strep, 5% lipoprotein deficient serum (LPDS). The cells were then starved overnight.
Pre-Incubation/pre-dose. Media was removed from all plates and replaced with fresh starve media and preincubated for 30 minutes. Half of the wells received media containing ezetimibe (stock soln in EtOH; final conc.=10 μM).
^3H-Cholesterol Pulse. The following was added directly to each well: • 0.5 μCi ^3H-cholesterol (˜1.1×10^6 dpm/well) in 50 μl of a mixed bile salt micelle • 4.8 mM sodium taurocholate (2.581 mg/mL) • 0.6 mM sodium oleate (0.183 mg/mL) • 0.25 mM cholesterol (0.1 mg/mL) • Dispersed in “starve” media by ultrasonic vibration • Final media cholesterol concentration=5 μg/mL
Labeled cholesterol pulse time points were 4, 12, 24 minutes and 4 hours. Triplicate wells were prepared for each treatment.
Wash. At designated times, media was aspirated and cells were washed once with Hobbs Buffer A (50 mM Tris, 0.9% NaCl, 0.2% bovine serum albumin (BSA), pH 7.4) and once with Hobbs Buffer B (50 mM Tris, 0.9% NaCl, pH 7.4 (no BSA)) at 37° C.
A. 4, 12, 24 minute time points: Cells were digested overnight with 0.2N NaOH, 2 mL/well, room temperature. One 1.5 mL aliquot was removed from each well, neutralized & counted for radioactivity by scintillation counting.
B. 4 hour time point: The digested cells were analyzed by thin-layer chromatography to determine the content of cholesterol ester in the cells.
Extracts were spotted onto TLC plates and run for 30 minutes in 2 ml hexane:isopropanol (3:2) mobile phase for 30 minutes, followed by a second run in 1 ml hexane:isopropanol (3:2) mobile phase for 15 minutes.
C. Protein determination of cell extracts. Plates containing a sample of the cell extracts were placed on orbital shaker at 120 rpm for indicated times and then extracts are pooled into 12×75 tubes. Plates were dried and NaOH (2 ml/well) added. The protein content of the samples were then determined. Two additional 50 μl aliquots from all wells were assayed for total protein by the Pierce micro BCA method. The quantity of labeled cholesterol observed in the cells was normalized to the quantity of protein in the cells.

cholesterol absorption = conditions: mouse; cited from earlier work

## O=C1[C@H](CC[C@H](O)c2ccc(F)cc2)[C@@H](c2ccc(O)cc2)N1c1ccc(F)cc1 [ezetimibe]
[1]
  binding to cell membranes expressing human, mouse or rat NPC1L1: binds
Mouse SR-B1; 4 Hour Pulse
  Cholesteryl Ester, dpm ± sem: 9305 ± 401 dpm
  Cholesteryl Ester, dpm/mg protein ± sem: 72782 ± 3181 dpm/mg protein
  Free Cholesterol, dpm ± sem: 194519 ± 474 dpm
  Free Cholesterol, dpm/mg protein ± sem: 1521341 ± 4185 dpm/mg protein
Mouse SR-B1; 4 Min Pulse
  Total Cholesterol, dpm ± sem: 10968 ± 821 dpm
  Total Cholesterol, dpm/mg protein ± sem: 92474 ± 2902 dpm/mg protein
Mouse SR-B1; 12 Min Pulse
  Total Cholesterol, dpm ± sem: 12349 ± 298 dpm
  Total Cholesterol, dpm/mg protein ± sem: 98956 ± 4447 dpm/mg protein
Mouse SR-B1; 24 Min Pulse
  Total Cholesterol, dpm ± sem: 23558 ± 1310 dpm
  Total Cholesterol, dpm/mg protein ± sem: 198725 ± 11713 dpm/mg protein
Cholesterol absorption
  potency (ED50) in vivo: 0.5 mpk
